Like-named read-outs stand apart in the source and are kept apart here.
Tests used:
TBK1 = target: T1, TBK1 (Homo sapiens, UniProt Q9UHD2); assay: In-vitro TBK1 kinase assay ([γ33]ATP filter-plate); format: biochemical
T1 construct: His-tag; made in house; host or cells: Sf9 insect cells
T1 sequence (Q9UHD2 1-729): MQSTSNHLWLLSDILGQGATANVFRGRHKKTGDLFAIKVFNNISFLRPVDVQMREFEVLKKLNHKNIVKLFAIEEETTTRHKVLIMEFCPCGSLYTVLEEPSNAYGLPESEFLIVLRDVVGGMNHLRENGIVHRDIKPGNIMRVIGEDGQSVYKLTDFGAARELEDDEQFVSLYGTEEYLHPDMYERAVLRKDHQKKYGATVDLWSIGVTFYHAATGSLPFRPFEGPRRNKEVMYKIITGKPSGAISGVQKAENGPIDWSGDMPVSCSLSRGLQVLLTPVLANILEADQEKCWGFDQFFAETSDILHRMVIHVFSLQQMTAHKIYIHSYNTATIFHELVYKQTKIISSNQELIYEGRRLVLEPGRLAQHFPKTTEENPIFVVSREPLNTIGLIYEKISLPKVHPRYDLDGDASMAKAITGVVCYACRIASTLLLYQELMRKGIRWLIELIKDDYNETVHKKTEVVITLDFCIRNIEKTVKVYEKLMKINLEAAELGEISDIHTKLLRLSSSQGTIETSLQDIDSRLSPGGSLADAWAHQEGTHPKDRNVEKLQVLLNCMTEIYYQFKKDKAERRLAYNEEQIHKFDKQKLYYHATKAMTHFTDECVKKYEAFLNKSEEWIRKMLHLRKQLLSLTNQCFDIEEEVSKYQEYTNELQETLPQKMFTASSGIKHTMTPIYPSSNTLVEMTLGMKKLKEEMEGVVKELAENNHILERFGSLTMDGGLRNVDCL
In short: (§1)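 His-tagged IKKε and TBK1 from Sf9 cells were assayed with myelin basic protein or casein and [γ33]ATP at 2×Km ATP (32 μM for IKKε, 60 μM for TBK1). Enzyme was 0.1 or 0.015 μg/ml for IKKε and 0.1 or 0.02 μg/ml for TBK1 (normal/sensitized). Reactions ran 30-45 min, were filter-captured, scintillation-counted, and normalized to DMSO after background subtraction.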

IKKε = target: T2, IKKε (Homo sapiens, UniProt Q14164); assay: In-vitro IKKε kinase assay ([γ33]ATP filter-plate); format: biochemical
T2 construct: His-tag; made in house; host or cells: Sf9 insect cells
T2 sequence (Q14164 1-716): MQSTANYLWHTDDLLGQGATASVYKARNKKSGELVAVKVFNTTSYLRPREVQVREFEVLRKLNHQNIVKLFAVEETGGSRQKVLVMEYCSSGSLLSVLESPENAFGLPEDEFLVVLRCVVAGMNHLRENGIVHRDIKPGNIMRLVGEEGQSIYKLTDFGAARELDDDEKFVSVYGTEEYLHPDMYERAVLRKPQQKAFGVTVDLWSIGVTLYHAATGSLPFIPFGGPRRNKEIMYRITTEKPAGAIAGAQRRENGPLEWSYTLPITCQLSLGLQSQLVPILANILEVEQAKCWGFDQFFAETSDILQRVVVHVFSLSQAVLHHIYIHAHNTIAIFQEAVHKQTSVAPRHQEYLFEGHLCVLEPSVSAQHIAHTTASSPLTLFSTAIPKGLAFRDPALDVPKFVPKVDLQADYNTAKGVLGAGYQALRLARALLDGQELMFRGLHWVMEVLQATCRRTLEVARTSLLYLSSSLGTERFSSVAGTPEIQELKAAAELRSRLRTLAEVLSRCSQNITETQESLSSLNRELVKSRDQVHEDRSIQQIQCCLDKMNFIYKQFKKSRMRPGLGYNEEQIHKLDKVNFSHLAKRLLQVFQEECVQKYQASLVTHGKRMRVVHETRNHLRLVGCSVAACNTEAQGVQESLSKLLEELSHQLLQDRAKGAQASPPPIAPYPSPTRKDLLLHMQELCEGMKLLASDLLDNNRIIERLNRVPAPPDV
In short: as §1

[1] = test system: IKKε-mediated phosphorylation of IRF3; assay: In-situ phosphorylation of IRF3 (pIRF3 Ser396 ELISA) in HEK293T cells cotransfected with IRF3 and IKKε; format: cell-based; settings: Homo sapiens, HEK-293T
In short: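 For the IRF3 ELISA, HEK293T cells cotransfected with IRF3 and IKKε were replated at 20,000/well and treated 20 h. Phospho-Ser396 IRF3 was measured by ELISA and normalised to DMSO, with viability checked by CellTiter-Glo. For IRF7, cells transfected with IRF7 and TBK1 were treated overnight, and pSer477/Ser479 IRF7 was detected by Western blot.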

[2] = text bins, read-out: IC50 for inhibition of the kinase activity of TBK1
[3] = text bins, read-out: IC50 for inhibition of the kinase activity of IKKε
[4] = HEK293T cells, 20 hours, text bins, read-out: IC50 for inhibition of the in-situ IKKε-mediated phosphorylation of IRF3
[5] = HEK293T cells in culture, Table 3, read-out: pIRF3 ELISA IC50

Row | SMILES | IC50 (TBK1; [2]) | IC50 (IKKε; [3]) | IC50 [1, 4] | IC50 (TBK1; Table 3, read-out: TBK1 IC50) | IC50 (IKKε; Table 3, read-out: IKKε IC50) | IC50 [1, 5]
1 | N#Cc1cc(-c2ccnc(Nc3ccc(CS(=O)(=O)NCCO)cc3)n2)ccc1OC1CCOCC1 [compound 402, 1-[4-({4-[3-Cyano-4-(tetrahydro-2H-pyran-4-yloxy)phenyl]pyrimidin-2-yl}amino)phenyl]-N-(2-hydroxyethyl) methanesulfonamide] | < 10 nM | < 5 nM | < 100 nM |  |  | 
2 | N#Cc1cc(-c2ccnc(Nc3cccc(-c4nnn[nH]4)c3)n2)ccc1OC1CCOCC1 [compound 594, 2-(Tetrahydro-2H-pyran-4-yloxy)-5-(2-{[3-(1H-tetrazol-5-yl)phenyl]amino}pyrimidin-4-yl)benzonitrile] | < 10 nM | < 5 nM |  | 2 nM | 0.3 nM | > 5000 nM
3 | COc1cc(Nc2nccc(-c3ccc(OC4CCOCC4)c(C#N)c3)n2)ccc1S(=O)(=O)NCCCn1ccnc1 [Example 83, 4-({4-[3-cyano-4-(tetrahydro-2H-pyran-4-yloxy)phenyl]pyrimidin-2-yl}amino)-N-[3-(1H-imidazol-1-yl)propyl]-2-methoxybenzene-sulfonamide] | < 10 nM | < 5 nM | 100 to 250 nM |  |  | 
4 | COc1cc(Nc2nccc(-c3ccc(NC(=O)C4CC4)c(C#N)c3)n2)ccc1C(=O)N1CC(OC)C1 [compound 603, N-{2-Cyano-4-[2-({3-methoxy-4-[(3-methoxyazetidin-1-yl)carbonyl]phenyl}amino)pyrimidin-4-yl]phenyl} cyclopropane-carboxamide] | < 10 nM | < 5 nM | 100 to 250 nM |  |  | 
5 | N#Cc1cc(-c2ccnc(Nc3ccc(N4CCOCC4)cc3)n2)ccc1OC1CCN(S(N)(=O)=O)C1 (centres unmarked) [Example 225, 3-[2-cyano-4-(2-{[4-(morpholin-4-yl)phenyl]amino}pyrimidin-4-yl)phenoxy]pyrrolidine-1-sulfonamide] | < 10 nM | < 5 nM | 100 to 250 nM |  |  | 
6 | COc1cc(Nc2nccc(-c3ccc(OC4CCOCC4)c(C#N)c3)n2)ccc1C(=O)NCCN1CCCC1 [compound 504, 4-({4-[3-cyano-4-(tetrahydro-2H-pyran-4-yloxy)phenyl]pyrimidin-2-yl}amino)-2-methoxy-N-[2-(pyrrolidin-1-yl)ethyl]benzamide] | < 10 nM | < 5 nM | < 100 nM |  |  | 
7 | CN1CCN(c2ccc(Nc3nccc(-c4ccc(OC5CCOCC5)c(C#N)c4)n3)cc2)CC1 [Example 178, 5-(2-{[4-(4-methylpiperazin-1-yl)phenyl]amino}pyrimidin-4-yl)-2-(tetrahydro-2H-pyran-4-yloxy)benzonitrile] | < 10 nM | < 5 nM | < 100 nM |  |  | 
8 | COc1cc(Nc2nccc(-c3ccc(O[C@@H]4CCN(C(=O)CO)C4)c(C#N)c3)n2)ccc1N1CCOCC1 [compound 588, 2-{[(3R)-1-(hydroxyacetyl)pyrrolidin-3-yl]oxy}-5-(2-{[3-methoxy-4-(morpholin-4-yl)phenyl]amino}pyrimidin-4-yl)benzonitrile] | < 10 nM | < 5 nM | < 100 nM | 0.3 nM | 0.3 nM | 31 nM
9 | Cc1cc(Nc2nccc(-c3ccc(OC4CCOCC4)c(C#N)c3)n2)ccc1N1CCOCC1 [Example 18, 5-(2-{[3-methyl-4-(morpholin-4-yl)phenyl]amino}pyrimidin-4-yl)-2-(tetrahydro-2H-pyran-4-yloxy)benzonitrile] | < 10 nM | < 5 nM | 100 to 250 nM |  |  | 
10 | N#Cc1cc(-c2ccnc(Nc3ccc(CS(=O)(=O)NCCCN4CCOCC4)cc3)n2)ccc1OC1CCOCC1 [compound 405, 1-[4-({4-[3-Cyano-4-(tetrahydro-2H-pyran-4-yloxy)phenyl]pyrimidin-2-yl}amino)phenyl]-N-[3-(morpholin-4-yl)propyl] methanesulfonamide] | < 10 nM | < 5 nM | < 100 nM |  |  | 
11 | CCN1CCN(Cc2ccc(Nc3nccc(-c4ccc(OC5CCN(C(=O)[C@H](C)O)CC5)c(C#N)c4)n3)cc2)CC1 [compound 508, 5-[2-({4-[(4-ethylpiperazin-1-yl)methyl]phenyl}amino)pyrimidin-4-yl]-2-({1-[(2S)-2-hydroxypropanoyl]piperidin-4-yl}oxy)benzonitrile] | 10 to 100 nM | 5 to 50 nM | 100 to 250 nM |  |  | 
12 | CCN(CC)CCNC(=O)c1ccc(Nc2nccc(-c3ccc(OC4CCOCC4)c(C#N)c3)n2)cc1OC [compound 506, 4-({4-[3-cyano-4-(tetrahydro-2H-pyran-4-yloxy)phenyl]pyrimidin-2-yl}amino)-N-[2-(diethylamino)ethyl]-2-methoxybenzamide] | < 10 nM | < 5 nM | < 100 nM |  |  | 
13 | CN(C)CCCNS(=O)(=O)c1ccc(Nc2nccc(-c3ccc(OC4CCOCC4)c(C#N)c3)n2)cc1 [Example 3, 4-({4-[3-cyano-4-(tetrahydro-2H-pyran-4-yloxy)phenyl]pyrimidin-2-yl}amino)-N-[3-(dimethylamino)propyl] benzenesulfonamide] | < 10 nM | < 5 nM | 250 to 500 nM | 0.2 nM | 2.8 nM | 280 nM
14 | COc1cc(Nc2nccc(-c3ccc(OC4CCOCC4)c(C#N)c3)n2)ccc1CN1CC(OC)C1 [compound 482, 5-[2-({3-Methoxy-4-[(3-methoxyazetidin-1-yl)methyl]phenyl}amino)pyrimidin-4-yl]-2-(tetrahydro-2H-pyran-4-yloxy)benzonitrile] | < 10 nM | < 5 nM | < 100 nM |  |  | 
15 | CC(C)N1CCN(CCOc2cc(Nc3nccc(-c4ccc(OCC5CC5)c(C#N)c4)n3)ccc2F)CC1 [compound 574, 2-(Cyclopropylmethoxy)-5-{2-[(4-fluoro-3-{2-[4-(propan-2-yl)piperazin-1-yl]ethoxy}phenyl)amino]pyrimidin-4-yl}benzonitrile] | < 10 nM | < 5 nM | 100 to 250 nM |  |  | 
16 | CN(C)S(=O)(=O)Cc1ccc(Nc2nccc(-c3ccc(OC4CCOCC4)c(C#N)c3)n2)cc1 [compound 401, 1-[4-({4-[3-Cyano-4-(tetrahydro-2H-pyran-4-yloxy)phenyl]pyrimidin-2-yl}amino)phenyl]-N,N-dimethylmethane-sulfonamide] | < 10 nM | < 5 nM | < 100 nM |  |  | 
17 | COCCNCc1ccc(Nc2nccc(-c3ccc(OC4CCOCC4)c(C#N)c3)n2)cc1 [compound 488, 5-{2-[(4-{[(2-methoxyethyl)amino]methyl}phenyl)amino]pyrimidin-4-yl}-2-(tetrahydro-2H-pyran-4-yloxy)benzonitrile] | < 10 nM | < 5 nM | < 100 nM |  |  | 
18 | COc1cc(Nc2nccc(-c3ccc(OC4CCOCC4)c(C#N)c3)n2)ccc1OCCOCCN [Example 21, 5-[2-({4-[2-(2-aminoethoxy)ethoxy]-3-methoxyphenyl}amino)pyrimidin-4-yl]-2-(tetrahydro-2H-pyran-4-yloxy)benzonitrile] | < 10 nM | < 5 nM | < 100 nM |  |  | 
